Reference: ChEMBL document CHEMBL5537135, “Novel antimicrobial peptides modified with fluorinated sulfono-γ-AA having high stability and targeting multidrug-resistant bacteria infections” (Eur J Med Chem, 2024)
Converted amounts (≈) assume the structure as drawn. The source made the active and inactive calls. The calls are words filed in the database; no cut-off is given here. Numbered stars: 1 amine (or outer) side, 2 acyl side, 3 side chain; on linkers, the order of the positions; unused ones are H or OH. Square brackets hold non-standard residues; d marks the D form. Peptide text beside a SMILES is read from it. * marks the point of attachment. X3 = CC(C)C[C@@H](CN(CC(N)=O)S(=O)(=O)c1ccc(C(F)(F)F)cc1)N*; X2 = CC(C)C[C@H](N)CN(CC(=O)[*:2])[*:1]; X1 = O=S(=O)(c1ccc(C(F)(F)F)cc1)*

Tests used:
Staphylococcus aureus [1] = assay: Bactericidal activity against Staphylococcus aureus ATCC 33591 at 2 to 4 times MIC; format: functional, organism-based
Pseudomonas aeruginosa [2] = assay: Antimicrobial activity against multidrug-resistant Pseudomonas aeruginosa 061 assessed as inhibition of visible bacterial growth incubated for 18 hrs by broth-dilution method; format: functional
Staphylococcus aureus [3] = assay: Antimicrobial activity against methicillin-resistant Staphylococcus aureus 9 assessed as inhibition of visible bacterial growth incubated for 18 hrs by broth-dilution method; format: functional
Pseudomonas aeruginosa [4] = assay: Synergistic antibacterial activity against Pseudomonas […] assessed as fractional inhibitory concentration index in presence of polymyxin B by checkerboard assay; format: functional
Staphylococcus aureus [5] = assay: Additive antibacterial activity against methicillin-resistant Staphylococcus aureus S5 assessed as fractional inhibitory concentration index in presence of amoxicillin by checkerboard assay; format: functional
Staphylococcus aureus [6] = assay: Antimicrobial activity against methicillin-resistant Staphylococcus aureus 2 assessed as inhibition of visible bacterial growth incubated for 18 hrs by broth-dilution method; format: functional
Pseudomonas aeruginosa [7] = assay: Antimicrobial activity against Pseudomonas aeruginosa ATCC 27853 assessed as inhibition of visible bacterial growth incubated for 18 hrs by broth-dilution method; format: functional
Staphylococcus aureus [8] = assay: Antimicrobial activity against methicillin-resistant Staphylococcus aureus 6 assessed as inhibition of visible bacterial growth incubated for 18 hrs by broth-dilution method; format: functional
Pseudomonas aeruginosa [9] = assay: Induction of intracellular ROS accumulation in Pseudomonas aeruginosa ATCC 27853 by DCFH-DA dye based fluorescence assay; format: functional, organism-based
Pseudomonas aeruginosa [10] = assay: Antibiofilm activity against Pseudomonas aeruginosa ATCC 27853 assessed as biofilm thickness at 1 times MIC90 incubated for 24 hrs by confocal laser scanning microscopic analysis; format: functional
Staphylococcus aureus [11] = assay: Antimicrobial activity against Staphylococcus aureus ATCC 25923 assessed as reduction in bacterial growth in presence of human serum; format: functional
Staphylococcus aureus [12] = assay: Antimicrobial activity against methicillin-resistant Staphylococcus aureus ATCC 33591 assessed as reduction in bacterial growth in presence of human serum; format: functional
[13] = system: Staphylococcus epidermidis; assay: Antimicrobial activity against Staphylococcus epidermidis ATCC 12228 assessed as inhibition of visible bacterial growth incubated for 18 hrs by broth-dilution method; format: functional
Pseudomonas aeruginosa [14] = assay: Synergistic antibacterial activity against multidrug-resistant Pseudomonas aeruginosa 124 assessed as fractional inhibitory concentration index in presence of polymyxin B by checkerboard assay; format: functional
Pseudomonas aeruginosa [15] = assay: Antimicrobial activity against multidrug-resistant Pseudomonas aeruginosa 156 assessed as inhibition of visible bacterial growth incubated for 18 hrs by broth-dilution method; format: functional
Cell membrane [16] = assay: Induction of outer membrane permeabilization in Pseudomonas aeruginosa ATCC 27853 assessed as increase in NPN uptake measured upto 20 mins by NPN-dye based fluorescence analysis
Erythrocyte = assay: Hemolytic activity against mouse Red blood cell incubated for 1 hr; format: toxicity, cell-based
Staphylococcus aureus [17] = assay: Antimicrobial activity against methicillin-resistant Staphylococcus aureus 7 assessed as inhibition of visible bacterial growth incubated for 18 hrs by broth-dilution method; format: functional
Pseudomonas aeruginosa [18] = assay: Antimicrobial activity against multidrug-resistant Pseudomonas aeruginosa 125 assessed as inhibition of visible bacterial growth incubated for 18 hrs by broth-dilution method; format: functional
Pseudomonas aeruginosa [19] = assay: Antibiofilm activity against Pseudomonas aeruginosa ATCC 27853 assessed as biofilm thickness at 8 microg/ml incubated for 24 hrs by confocal laser scanning microscopic analysis; format: functional; conditions: dose 8 µg/ml
Cell membrane [20] = assay: Induction of cytoplasmic membrane depolarization in methicillin-resistant Staphylococcus aureus ATCC 33591 assessed as increase in fluorescence intensity at 2 times MIC by DiSC35 dye-based fluorescence assay
Staphylococcus aureus [21] = assay: Antimicrobial activity against methicillin-resistant Staphylococcus aureus 4 assessed as inhibition of visible bacterial growth incubated for 18 hrs by broth-dilution method; format: functional
Bacillus subtilis = assay: Antimicrobial activity against Bacillus subtilis ATCC 23857 assessed as inhibition of visible bacterial growth incubated for 18 hrs by broth-dilution method; format: functional
Pseudomonas aeruginosa [22] = assay: Antimicrobial activity against Pseudomonas aeruginosa ATCC 27853 assessed as fold increase in MIC in presence of human serum; format: functional
Cell membrane [23] = assay: Induction of membrane depolarization in Pseudomonas aeruginosa ATCC 27853 assessed as increase in fluorescence intensity by DiSC35 dye-based fluorescence assay; format: cell membranes
[24] = Toxicity in mouse assessed as heart lesion at 20 mg/kg, ip measured for 30 to 60 mins by H and E staining based analysis; format: organism-based; conditions: in vivo, time 30-60 min
Staphylococcus aureus [25] = assay: Additive antibacterial activity against Staphylococcus aureus ATCC 33591 assessed as fractional inhibitory concentration index in presence of polymyxin B by checkerboard assay; format: functional
Staphylococcus aureus [26] = assay: Synergistic antibacterial activity against methicillin-resistant Staphylococcus aureus S5 assessed as fractional inhibitory concentration index in presence of vancomycin by checkerboard assay; format: functional
[27] = Toxicity in mouse assessed as skin injury at 40 mg/kg, sc measured for 5 to 1440 mins by H and E staining analysis; format: organism-based; conditions: in vivo, time 5-1440 min
Staphylococcus aureus [28] = assay: Antibacterial activity against methicillin-resistant Staphylococcus aureus ATCC 33591 infected in full-thickness wound BALB/c mouse model assessed as reduction in inflammatory infiltration at 1 mg/kg, ip administered for 1 to 48 hrs and measured after 3 days; format: functional, organism-based; conditions: time 1-120 hrs
Pseudomonas aeruginosa [29] = assay: Additive antibacterial activity against multidrug-resistant Pseudomonas aeruginosa 124 assessed as fractional inhibitory concentration index in presence of ceftazidime by checkerboard assay; format: functional
Pseudomonas aeruginosa [30] = assay: Antibacterial activity against Pseudomonas aeruginosa ATCC 27853 infected in C57BL/6 mouse pneumonia model assessed as decrease in TNF-alpha level in lung at 2.5 to 10 mg/kg, ip administered for 1 to 48 hrs and measured after 3 days; format: functional, organism-based; conditions: dose 2.5-10 mg/kg, time 1-120 hrs
Staphylococcus aureus [31] = assay: Antibacterial activity against […] Staphylococcus aureus ATCC 33591; format: functional, organism-based
Staphylococcus aureus [32] = assay: Antibacterial activity against methicillin-resistant Staphylococcus aureus ATCC 33591 infected in full-thickness wound BALB/c mouse model assessed as log reduction in bacterial load at 0.25 mg/kg, ip administered for 1 to 48 hrs and measured after 3 days by SEM analysis; format: functional; conditions: time 1-120 hrs
Cell membrane [33] = assay: Induction of membrane depolarization in methicillin-resistant Staphylococcus aureus ATCC 33591 assessed as increase in fluorescence intensity by DiSC35 dye-based fluorescence assay; format: cell membranes
Pseudomonas aeruginosa [34] = assay: Bactericidal activity against Pseudomonas aeruginosa ATCC 27853 assessed as reduction in viable bacteria at 4 times MIC measured for 1 min by time-kill assay; format: functional, organism-based
[35] = Toxicity in mouse assessed as spleen lesion at 20 mg/kg, ip measured for 30 to 60 mins by H and E staining based analysis; format: organism-based; conditions: in vivo, time 30-60 min
[36] = Toxicity in mouse at 40 mg/kg, sc measured for 5 to 1440 mins; format: organism-based; conditions: in vivo, time 5-1440 min
Pseudomonas aeruginosa [37] = assay: Antibacterial activity against Pseudomonas aeruginosa ATCC 27853 infected in C57BL/6 mouse pneumonia model assessed as decrease in IL-1beta level in lung at 2.5 to 10 mg/kg, ip administered for 1 to 48 hrs and measured after 3 days; format: functional, organism-based; conditions: dose 2.5-10 mg/kg, time 1-120 hrs
Pseudomonas aeruginosa [38] = assay: Antibacterial activity against Pseudomonas aeruginosa ATCC 27853 infected in C57BL/6 mouse pneumonia model assessed as reduction in bacterial load in lung at 10 mg/kg, ip administered for 1 to 48 hrs and measured after 3 days; format: functional, organism-based; conditions: time 1-120 hrs

Compound | Activity (Staphylococcus aureus [1]) | MIC (Pseudomonas aeruginosa [2]) [µg/mL] | MIC (Staphylococcus aureus [3]) [µg/mL] | fractional inhibitory concentration index (FICI) (Pseudomonas aeruginosa [4]) | fractional inhibitory concentration index (FICI) (Staphylococcus aureus [5]) | MIC (Staphylococcus aureus [6]) [µg/mL] | MIC (Pseudomonas aeruginosa [7]) [µg/mL] | MIC (Staphylococcus aureus [8]) [µg/mL] | Activity (Pseudomonas aeruginosa [9]) | Activity (Pseudomonas aeruginosa [10]) [um] | MIC (Staphylococcus aureus [11]) [µg/mL] | MIC (Staphylococcus aureus [12]) [µg/mL] | MIC [13] [µg/mL] | MIC (Pseudomonas aeruginosa [15]) [µg/mL] | Activity (Cell membrane [16]) | MHC (Erythrocyte) [µg/mL] | MIC (Staphylococcus aureus [17]) [µg/mL] | MIC (Pseudomonas aeruginosa [18]) [µg/mL] | Activity (Pseudomonas aeruginosa [19]) [um] | MIC (Staphylococcus aureus [21]) [µg/mL] | further results
CC(C)C[C@@H](CN(CC(N)=O)S(=O)(=O)c1ccc(C(F)(F)F)cc1)NC(=O)[C@H](CCCCN)NC(=O)[C@H](CCCCN)NC(=O)[C@H](CC(C)C)NC(=O)[C@H](CC(C)C)NC(=O)[C@H](CCCCN)NC(=O)[C@H](CC(C)C)NC(=O)[C@@H](N)Cc1ccccc1 (H-FLKLLKK-X3) | Active | 8 (≈ 6.39 µM) | 8 (≈ 6.39 µM) | 0.75 | 0.5 | 4 (≈ 3.19 µM) | 8 (≈ 6.39 µM) | 4 (≈ 3.19 µM) | Active | 40 | 8 | 8 | 4 (≈ 3.19 µM) | 16 (≈ 12.8 µM) | Dose-Dependent Effect | 256 | 8 (≈ 6.39 µM) | 16 (≈ 12.8 µM) | 20 | 8 (≈ 6.39 µM) | fractional inhibitory concentration index (FICI) (Pseudomonas aeruginosa [14]): 0.75; Activity (Cell membrane [20]): Active; MIC (Bacillus subtilis): 4 µg/mL (≈ 3.19 µM); fold change (FC) (Pseudomonas aeruginosa [22]): 2
CC(C)C[C@H](N)CN(CC(=O)N[C@@H](CCCCN)C(=O)N[C@@H](CC(C)C)C(=O)N[C@@H](CC(C)C)C(=O)N[C@@H](CCCCN)C(=O)N[C@@H](CCCCN)C(=O)N[C@@H](CC(C)C)C(=O)N[C@@H](CC(C)C)C(N)=O)S(=O)(=O)c1ccc(C(F)(F)F)cc1 (X1-[X2]KLLKKLL-NH2) | Active | 8 (≈ 6.56 µM) | 8 (≈ 6.56 µM) | 0.5 | 1 | 4 (≈ 3.28 µM) | 4 (≈ 3.28 µM) | 4 (≈ 3.28 µM) | Active | 40 | 8 | 8 | 4 (≈ 3.28 µM) | 4 (≈ 3.28 µM) | Dose-Dependent Effect | 256 | 4 (≈ 3.28 µM) | 8 (≈ 6.56 µM) | 20 | 4 (≈ 3.28 µM) | Activity (Cell membrane [23]): Dose-Dependent Effect; Activity [24]: Non-Toxic; fractional inhibitory concentration index (FICI) (Staphylococcus aureus [25]): 1; fractional inhibitory concentration index (FICI) (Staphylococcus aureus [26]): 2; Activity [27]: Non-Toxic; Activity (Staphylococcus aureus [28]): Active; fractional inhibitory concentration index (FICI) (Pseudomonas aeruginosa [29]): 1; Activity (Pseudomonas aeruginosa [30]): Active; Activity (Staphylococcus aureus [31]): Active; log(activity) (Staphylococcus aureus [32]): 0.82; Activity (Cell membrane [33]): Dose-Dependent Effect; Activity (Pseudomonas aeruginosa [34]): Active; Activity [35]: Non-Toxic; Activity [36]: Non-Toxic; Activity (Pseudomonas aeruginosa [37]): Active; Activity (Pseudomonas aeruginosa [38]): Active; MIC (Bacillus subtilis): 4 µg/mL (≈ 3.28 µM); fold change (FC) (Pseudomonas aeruginosa [22]): 2
